In US10934275B2, “IRE1 small molecule inhibitors” (Cornell University, priority 2016, dated 2021):
Counter-ions that a name gives are not always drawn.

Tests used:
IRE1α [1] = target: T1, IRE1α (Homo sapiens, UniProt O75460); assay: In vitro FRET assay (XBP1 RNA probe cleavage by IRE1α); assay type: biochemical; design: purchased SignalChem; conditions: SignalChem IRE1α protein 2 nM
Description: In vitro FRET assay was performed to evaluate the ability of select compounds to inhibit IRE1, the results of which are summarized in Table 5. To perform the in vitro FRET assay, 1× complete assay buffer (CAB; […], 50 mM sodium citrate pH 7.15, 1 mM magnesium acetate, 0.02% tween 20) was used to dilute SignalChem IRE1α protein to a final concentration of 2 nM. Selected compounds were serially diluted with DMSO in a non-binding black 384-well plate for a total of 15 ul in each well. 2 ul of the serially diluted compound or DMSO control were then added to new wells containing 98 ul of 1×CAB, for a total volume of 100 ul, 10 ul of which were then transferred to wells of a new plate. 5 ul of the diluted IRE1α was then added to each well. 5 ul of a […] XBP1 RNA probe was then added to each well. Fluorescence was then read over 30 minutes in kinetic mode (485/515 nm).
Two RNA probes were used, XBP1 wildtype (SEQ ID NO: 2) which is able to be spliced by active IRE1α or XBP1 mutant (SEQ ID NO: 3) which is unable to be spliced. Each probe contained a 5′ 6-FAM modification and a 3′ IOWA Black FQ modification.
A second FRET assay was performed to assess ATP-mediated inhibition. In this case, compounds and IRE1α were prepared and combined as discussed above, with the addition of ATP up to 1 mM final concentration. This mixture was incubated at room temperature for 60 minutes and then 5 ul of 400 nM XBP1 wildtype or mutant RNA probe was added. Plates were then read over 30 minutes in kinetic mode (485/515 nm).
Target sequence in this assay (O75460 468-977 limits assumed): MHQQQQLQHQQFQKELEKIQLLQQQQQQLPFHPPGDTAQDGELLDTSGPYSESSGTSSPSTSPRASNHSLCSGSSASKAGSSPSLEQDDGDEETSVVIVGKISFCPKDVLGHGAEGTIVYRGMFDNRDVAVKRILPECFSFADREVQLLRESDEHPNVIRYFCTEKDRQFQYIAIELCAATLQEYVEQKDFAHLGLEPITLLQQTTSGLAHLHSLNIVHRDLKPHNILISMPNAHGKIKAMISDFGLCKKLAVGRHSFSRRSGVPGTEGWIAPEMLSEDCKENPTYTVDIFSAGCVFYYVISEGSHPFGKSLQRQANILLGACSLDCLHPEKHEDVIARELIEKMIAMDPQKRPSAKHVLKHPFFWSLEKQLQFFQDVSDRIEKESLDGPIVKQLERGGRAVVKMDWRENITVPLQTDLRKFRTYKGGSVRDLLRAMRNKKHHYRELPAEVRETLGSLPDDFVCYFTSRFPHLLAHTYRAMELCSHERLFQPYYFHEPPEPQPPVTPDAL

IRE1α [2] = target: T1, IRE1α; assay: IRE1α Endoribonuclease Nanoluciferase Assay (XBP1 luciferase reporter, 293T cells); assay type: cell-based; design: endogenous in cells; host or cells: 293T cells; conditions: 293T cells transfected with XBP1 luciferase reporter plasmid, stressors +/- inhibitors
Description: Compounds disclosed herein were assessed for disruption of IRE-1 signaling using a IRE1α Endoribonuclease Nanoluciferase Assay. Briefly, 2.5×10^6 293T cells were seeded in a 10 cm^2 tissue culture plate. About 24 hours later, the cells were transfected with Effectene. In a 15 mL Tube, the following was added: 2 μg XBP1 luciferase reporter plasmid (PGK-Luc2-P2A-XBP1u-Nanoluciferase-PEST); 300 μl EC buffer; and 16 μl Enhancer, followed by incubation at room temp for 5 minutes. Next, 60 μl Effectene (Qiagen 301427) was added, followed by incubation at room temperature for 10 minutes. 2.6 mL cDMEM media was added. Old media was aspirated from the cells, followed by addition of 7 mL fresh media. Full transfection mixture was added dropwise to cells. Cells were incubated for 6 hours, followed by tripsinization, centrifugation and resuspension in 11 mL media. 100 uL of cells were plated per a well in a 96 well plate. A day later, stressors of choice +/− inhibitors were added. To harvest, media was aspirated from cells completely, then 50 uL 1× passive lysis buffer (Promega: E1941) was added per well and put on shaker (300 rpm) for 30 minutes at room temperature. Cells were centrifuged, and 15 uL sample per well was added to a new, opaque white 384 well plate (Corning 3570). 15 uL OneGlo (nanoluciferase kit, Promega N1630) was added. Plates were spun down, placed on shaker (300 rpm) for 10 minutes. Plates were read on luminometer, 1000 ms integration time per well. 15 uL Stop and Glo (nanoluciferase kit) was added. Plates were spun down, placed on shaker (300 rpm) for 10 minutes. Plates were read on luminometer, 1000 ms second integration time per well. Recordings are provided below in Table 6.
Target sequence in this assay (O75460 19-977): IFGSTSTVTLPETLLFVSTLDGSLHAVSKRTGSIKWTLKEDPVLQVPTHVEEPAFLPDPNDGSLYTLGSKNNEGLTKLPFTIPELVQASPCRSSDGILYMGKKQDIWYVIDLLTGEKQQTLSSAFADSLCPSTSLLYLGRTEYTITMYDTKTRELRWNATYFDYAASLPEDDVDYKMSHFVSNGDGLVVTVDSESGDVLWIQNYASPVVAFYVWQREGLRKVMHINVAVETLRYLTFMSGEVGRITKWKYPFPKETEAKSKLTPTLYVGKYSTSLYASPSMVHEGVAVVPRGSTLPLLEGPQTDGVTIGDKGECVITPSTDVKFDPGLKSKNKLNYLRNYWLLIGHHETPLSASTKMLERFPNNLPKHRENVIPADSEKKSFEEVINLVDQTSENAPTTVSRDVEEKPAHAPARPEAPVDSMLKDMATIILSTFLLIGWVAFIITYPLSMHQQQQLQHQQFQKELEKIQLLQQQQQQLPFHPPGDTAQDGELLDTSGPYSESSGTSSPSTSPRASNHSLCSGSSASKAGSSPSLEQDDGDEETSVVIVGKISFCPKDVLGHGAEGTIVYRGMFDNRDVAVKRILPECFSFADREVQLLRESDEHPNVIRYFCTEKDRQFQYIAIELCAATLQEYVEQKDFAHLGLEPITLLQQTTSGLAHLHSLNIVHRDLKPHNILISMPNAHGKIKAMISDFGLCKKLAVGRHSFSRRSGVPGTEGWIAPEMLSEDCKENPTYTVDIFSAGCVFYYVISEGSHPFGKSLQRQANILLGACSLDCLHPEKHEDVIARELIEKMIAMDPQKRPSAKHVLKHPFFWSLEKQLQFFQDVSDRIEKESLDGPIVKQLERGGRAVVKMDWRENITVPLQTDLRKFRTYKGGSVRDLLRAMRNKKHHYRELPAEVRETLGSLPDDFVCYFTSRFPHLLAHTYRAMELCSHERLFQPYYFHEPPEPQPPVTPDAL

EC50 (IRE1α [1]) [nM]	EC50 (IRE1α [2]) [nM]	Structure (SMILES)
≤ 5	> 100	CN1CCN(Cc2ccc(NC(=O)Nc3cc(-c4ccc5nc(NC6CCNCC6)ncc5c4)n(C)n3)cc2C(F)(F)F)CC1 [2; TFA]
> 100	> 100	CN1CCN(Cc2ccc(NC(=O)Nc3cc(-c4ccc5nc(NC6CCCCC6)ncc5c4)n(C)n3)cc2C(F)(F)F)CC1 [Compound 5, 1-(5-(2-(cyclohexylamino)quinazolin-6-yl)-1-methyl-1H-pyrazol-3-yl)-3-(4-((4-methylpiperazin-1-yl)methyl)-3-(trifluoromethyl)phenyl)urea]
5 to 50	> 100	Cc1cc(-c2cc(NC(=O)Nc3ccc(CN4CCN(C)CC4)c(C(F)(F)F)c3)nn2C)cc2cnc(N)nc12 [Compound 12, 1-(5-(2-amino-8-methylquinazolin-6-yl)-1-methyl-1H-pyrazol-3-yl)-3-(4-((4-methylpiperazin-1-yl)methyl)-3-(trifluoromethyl)phenyl)urea]
≤ 5	≤ 5	CCc1cc(-c2cc(NC(=O)Nc3ccc(CN4CCN(C)CC4)c(C(F)(F)F)c3)nn2C)cc2cnc(N[C@H]3CC[C@H](N)CC3)nc12 [Compound 31, 1-(5-(2-(((1r,4r)-4-aminocyclohexyl)amino)-8-ethylquinazolin-6-yl)-1-methyl-1H-pyrazol-3-yl)-3-(4-((4-methylpiperazin-1-yl)methyl)-3-(trifluoromethyl)phenyl)urea]
> 100	–	CN1CCN(Cc2ccc(NC(=O)Nc3cc(-c4ccc5cc(NC6CCCCC6)ncc5c4)n(C)n3)cc2C(F)(F)F)CC1 [4; TFA]
